Experimental data as given in patent US6429287B1, “Isolated molecules which complex with HLA-Cw*16 molecules, and uses thereof” (Ludwig Institute for Cancer Research, priority 1996, dated 2002).
Ends that are not written are not given here.

Columns and labels:
HLA-Cw*1601 = HLA-Cw*1601 (Homo sapiens, UniProt P10321, /M331V/P208H/P217L/Q277E/Q291P/R121W/S123Y/S297R/S48A/T329A/T363A/V319A); conditions: disclosed in earlier applications Ser. No. 08/79,110 and 08/196,630; cited from earlier work
[1] = system: HLA-Cw*1601 positive lymphoblastoid cell line, i.e., LB678-EBV; assay: 51Cr release assay: peptide-stimulated lysis by CTLs; assay type: cell-based, human; conditions: for ability of the peptide to stimulate lysis by CTLs: 51Cr labelled LB678-EBV target cells, peptide 15 minutes at room temperature, CTLs added, 51Cr release after four hours at 37° C.
Protocol: Based upon this hypothesis, a series of peptides were constructed, and lyophilized prior to testing. The lyophilized peptides were dissolved in 1 volume of DMSO, then 9 volumes of H2O, plus 10 mM of acetic acid. The thus diluted peptides were stored at −20° C.
The ability of the peptides to stimulate lysis by CTLs was tested via the ^51Cr release method of Boon et al., J. Exp. Med. 152: 1184-1193 (1980). Specifically, an HLA-Cw*1601 positive lymphoblastoid cell line, i.e., LB678-EBV was ^51Cr labelled for one hour at 37° C., and washed extensively. Then 1000 of these target cells were incubated in 96 well microplates, in the presence of various concentrations of peptide, for 15 minutes, at room temperature. CTLs were then added, and ^51Cr release was measured after four hours, at 37° C.

Substance | ability of the peptide to stimulate lysis by CTLs [1] | further results
AARAVFLAL [SEQ ID NO: 1, preferred BAGE-derived nonapeptide of earlier applications] |  | complexes with HLA-Cw*1601 and stimulates CTL 82/82 (HLA-Cw*1601): stimulating the cell line CTL 82/82
KISGGPRISYPL [SEQ ID NO: 5, corresponds to amino acids 126-137 of MAGE-6] | Lysis first occurred | 
amino acids 1-9 of SEQ ID NO: 5: peptide consisting of amino acids 1-9 of SEQ ID NO: 5 (KISGGPRIS) | neither one stimulated lysis | 
amino acids 2-10 of SEQ ID NO: 5: nonamer consisting of amino acids 2-10 of SEQ ID NO: 5 (ISGGPRISY) |  | EC50 ([1]; 51Cr release, LB678-EBV target cells, CTLs, four hours at 37° C., FIG. 3, read-out: peptide concentration achieving half maximal lysis): 0.03 µM
amino acids 3-10 of SEQ ID NO: 5: peptide consisting of amino acids 3-10 of SEQ ID NO: 5 (SGGPRISY) | neither one stimulated lysis | 
